Data on eight compounds can be found in patent publication US6380384B1, “1,2-dihydro-2-oxoquinoline derivatives” (Taisho Pharmaceutical Co., Ltd., priority 1997, dated 2002).

What is called IC50 is the concentration that gives 50% inhibition. Lower therefore signals greater potency in that assay.

The experiment addresses T1, mitochondrial diazepam binding inhibitor receptor (MDR) (Rattus norvegicus, UniProt P16257).
T1 construct: Crude mitochondria fractions prepared from rat cerebral cortex were used as a receptor sample; from tissue; host or cells: rat cerebral cortex, crude mitochondria fraction
Kind of experiment: MDR receptor binding assay ([3H]PK11195 displacement, crude mitochondria fractions from rat cerebral cortex). The note with it: 50% inhibition of [3H]PK11195 (2 nM) binding; rat cerebral cortex crude mitochondria fraction, 4° C., 90 minutes. As for the experimental part: Experiment [MDR Receptor Binding Assay]
Crude mitochondria fractions prepared from rat cerebral cortex were used as a receptor sample, and [^3H]PK11195 was used as a [^3H]-labeled ligand.
A binding assay using the [^3H]-labeled ligand was carried out according to the following method as described in Journal of Pharmacology and Experimental Therapeutics, 262, 971(1992).
Preparation of Receptor Sample: Rat cerebral cortex was homogenized using a Teflon-coated homogenizer in a 10 mM HEPES buffer (pH 7.4) containing 0.32 M sucrose in ten volumes of the wet weight. The homogenate was centrifuged at 900×g for 10 minutes, and the resulting supernatant was centrifuged at 9,000×g for 10 minutes. The precipitate was suspended in a HEPES buffer to give a protein concentration of 1 mg/ml, and centrifuged at 12,000×g for 10 minutes. The resulting precipitate was suspended in a 50 mM HEPES buffer (pH 7.4) to give a crude mitochondria fraction.
MDR Binding Assay:. Mitochondria sample (1.0 mg protein/ml), [^3H]PK11195 (2 nM) and the test drug were reacted at 4° C. for 90 minutes.
After completion of the reaction, the reaction mixture was filtered with suction through a glass filter (GF/B) treated with 0.3% polyethyleneimine, and the radioactivity on the filter was measured by a liquid scintillation spectrometer.
The binding at the reaction in the presence of 10 μM PK11195 was defined as non-specific binding of [^3H]PK11195, and the difference between total binding and non-specific binding was defined as specific binding.

The structures appear in SMILES notation.

T1 sequence (P16257 whole entry): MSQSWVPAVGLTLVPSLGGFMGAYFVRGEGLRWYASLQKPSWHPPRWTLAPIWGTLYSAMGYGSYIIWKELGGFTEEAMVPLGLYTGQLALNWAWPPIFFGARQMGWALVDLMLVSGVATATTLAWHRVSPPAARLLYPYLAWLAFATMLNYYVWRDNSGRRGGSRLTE

As to `CCCN(CCC)C(=O)c1cc2ccccc2n(Cc2ccccc2)c1=O` [Compound 04], the IC50 came to 1710 pM. The same measure for `CCCCCCN(CCCCCC)C(=O)c1cc2ccccc2n(Cc2ccccc2)c1=O` [Compound 05]: 159 pM; for `CCCCCCCCCCN(CCCCCCCCCC)C(=O)c1cc2ccccc2n(Cc2ccccc2)c1=O` [Compound 06]: 53400 pM; for `CCCCCCN(CCCCCC)C(=O)c1cc2ccccc2n(Cc2ccccn2)c1=O` [Compound 18]: 404 pM.

The compound `CCCCCCN(CCCCCC)C(=O)c1cc2ccccc2n(Cc2cccnc2)c1=O` [Compound 19, N,N-dihexyl-1-(3-picolyl)-1,2-dihydro-2-oxoquinoline-3-carboxamide] registered an IC50 of 368 pM. `CCCCCCN(CCCCCC)C(=O)c1cc2ccccc2n(Cc2ccncc2)c1=O` [Compound 20] showed an IC50 of 192 pM. Turning to `CCCCCCN(CCCCCC)C(=O)c1cc2ccccc2n(CCc2ccccc2)c1=O` [Compound 21], the IC50 is 6580 pM.

For the compound `CCCCCCN(CCCCCC)C(=O)c1cc2ccc(Cl)cc2n(Cc2ccccc2)c1=O` [Compound 23], the IC50 stood at 132 pM.
